Data taken from patent US8399452B2, “Dibenzo[b,f][1,4]oxazepin-11-yl-N-hydroxybenzamides as HDAC inhibitors” (Methylgene Inc., priority 2006, dated 2013).

What follows are compounds tested against histone deacetylase (HDAC Enzyme) (assay: Inhibition of Histone Deacetylase Enzymatic Activity (Boc-Lys(Ac)-AMC, Fluor-de-Lys developer)). Details: Table 10; read-out: HDAC Inhibition (IC50 μM) HDAC Enzyme.
Assay type: biochemical
Protocol: The following protocol is used to assay the compounds of the invention.
The mixture is pre-incubated for 5 minutes at room temperature. The reaction is started by bringing the temperature to 37° C. and adding 16 μl substrate. Total reaction volume is 50 μl.
In the Tables 8, 9 and 10, A≦[…]<B≦0.1 μM; 0.1 μM<C≦1 μM; and 1 μM<D≦10 μM.
In the case of `O=C(NO)c1cnc(N2CCC[C@H]2c2nc3ccccc3[nH]2)nc1` [(S)-2-(2-(1H-benzo[d]imidazol-2-yl)pyrrolidin-1-yl)-N-hydroxypyrimidine-5-carboxamide], the IC50 is reported as 0.1 to 1 µM. With `O=C(Cc1ccc(CN2c3ccccc3C=Cc3ccccc32)cc1)NO` [(Z)-2-(4-((5H-dibenzo[b,f]azepin-5-yl)methyl)phenyl)-N-hydroxyacetamide] the IC50 was 0.1 to 1 µM. `O=C(CN1c2ccccc2C=Cc2ccccc21)NO` [(Z)-2-(5H-dibenzo[b,f]azepin-5-yl)-N-hydroxyacetamide] was tested, and the IC50 was 1 to 10 µM. With `O=C(NO)c1cccc(CN2c3ccccc3C=Cc3ccccc32)c1` [(Z)-3-((5H-dibenzo[b,f]azepin-5-yl)methyl)-N-hydroxybenzamide] the IC50 was 0.1 to 1 µM. Compound `O=C(CCCN1c2ccccc2C=Cc2ccccc21)NO` [(Z)-4-(5H-dibenzo[b,f]azepin-5-yl)-N-hydroxybutanamide] has an IC50 of 1 to 10 µM. For `O=C1CN=C(c2ccc(C(=O)NO)cc2)c2cc(Br)sc2N1` [(Z)-4-(7-bromo-2-oxo-2,3-dihydro-1H-thieno[2,3-e][1,4]diazepin-5-yl)-N-hydroxybenzamide], the IC50 was 0.1 to 1 µM. With `O=C(NO)c1ccc(CN2c3ccccc3C=Cc3ccccc32)cc1` [(Z)-4-((5H-dibenzo[b,f]azepin-5-yl)methyl)-N-hydroxybenzamide] the IC50 was < 0.05 µM. With `O=C(CCCCN1c2ccccc2C=Cc2ccccc21)NO` [(Z)-5-(5H-dibenzo[b,f]azepin-5-yl)-N-hydroxypentanamide] the IC50 was 0.1 to 1 µM. For `O=C(CCCCCN1c2ccccc2C=Cc2ccccc21)NO` [(Z)-6-(5H-dibenzo[b,f]azepin-5-yl)-N-hydroxyhexanamide], the IC50 was < 0.05 µM. With `O=C(CCCCCC(=O)N1c2ccccc2C=Cc2ccccc21)NO` [(Z)-7-(5H-dibenzo[b,f]azepin-5-yl)-N-hydroxy-7-oxoheptanamide] the IC50 was < 0.05 µM. With `O=C(CCCCCCN1c2ccccc2C=Cc2ccccc21)NO` [(Z)-7-(5H-dibenzo[b,f]azepin-5-yl)-N-hydroxyheptanamide] the IC50 was < 0.05 µM. Work on `O=C(CCCCCCC(=O)N1c2ccccc2C=Cc2ccccc21)NO` [(Z)-8-(5H-dibenzo[b,f]azepin-5-yl)-N-hydroxy-8-oxooctanamide] yielded an IC50 of 0.1 to 1 µM. `CN1C(=O)CN=C(c2ccccc2)c2ccc(CCC(=O)NO)cc21` [(Z)-N-hydroxy-3-(1-methyl-2-oxo-5-phenyl-2,3-dihydro-1H-benzo[e][1,4]diazepin-8-yl)propanamide] gave an IC50 of 0.1 to 1 µM. `CN1C(=O)CN=C(c2ccc(C(=O)NO)cc2)c2ccccc21` [(Z)-N-hydroxy-4-(1-methyl-2-oxo-2,3-dihydro-1H-benzo[e][1,4]diazepin-5-yl)benzamide] gave an IC50 of 0.1 to 1 µM.

Same assay, conditions: read-out: HDAC Inhibtion (IC50 μM) HDAC Enzyme
In the case of `O=C(NO)c1cccc(C2=Nc3ccccc3Oc3ccccc32)c1` [(Z)-3-(dibenzo[b,f][1,4]oxazepin-11-yl)-N-hydroxybenzamide], the IC50 is reported as 0.1 to 1 µM. For `O=C(NO)c1ccc(C2=Nc3ccccc3Oc3cccc(F)c32)cc1` [(Z)-4-(1-fluorodibenzo[b,f][1,4]oxazepin-11-yl)-N-hydroxybenzamide], the IC50 was < 0.05 µM. In the case of `O=C(NO)c1ccc(C2=Nc3ccccc3Oc3ccc(Cl)cc32)cc1` [(Z)-4-(2-chlorodibenzo[b,f][1,4]oxazepin-11-yl)-N-hydroxybenzamide], the IC50 is reported as < 0.05 µM. For `COc1cc(F)cc2c1Oc1ccccc1N=C2c1ccc(C(=O)NO)cc1` [(Z)-4-(2-fluoro-4-methoxydibenzo[b,f][1,4]oxazepin-11-yl)-N-hydroxybenzamide], the IC50 was < 0.05 µM. For `O=C(NO)c1ccc(C2=Nc3ccccc3Oc3ccc(F)cc32)cc1` [(Z)-4-(2-fluorodibenzo[b,f][1,4]oxazepin-11-yl)-N-hydroxybenzamide], the IC50 was < 0.05 µM. `O=C(NO)c1ccc(C2=Nc3ccccc3Oc3cc(F)ccc32)cc1` [(Z)-4-(3-fluorodibenzo[b,f][1,4]oxazepin-11-yl)-N-hydroxybenzamide] gave an IC50 of 0.1 to 1 µM. Compound `O=C(NO)c1ccc(C2=Nc3ccccc3Oc3c(F)cccc32)cc1` [(Z)-4-(4-fluorodibenzo[b,f][1,4]oxazepin-11-yl)-N-hydroxybenzamide] has an IC50 of 0.1 to 1 µM. Compound `O=C(NO)c1ccc(C2=Nc3ccccc3N(C3CC3)c3ccc(F)cc32)cc1` [(Z)-4-(5-cyclopropyl-2-fluoro-5H-dibenzo[b,e][1,4]diazepin-11-yl)-N-hydroxybenzamide] has an IC50 of 0.05 to 0.1 µM. `CN(O)C(=O)c1ccc(C2=Nc3ccccc3N(C3CC3)c3ccccc32)cc1` [(Z)-4-(5-cyclopropyl-5H-dibenzo[b,e][1,4]diazepin-11-yl)-N-hydroxy-N-methylbenzamide] was tested, and the IC50 was 1 to 10 µM. Work on `O=C(NO)c1ccc(C2=Nc3ccccc3N(C3CC3)c3ccccc32)cc1` [(Z)-4-(5-cyclopropyl-5H-dibenzo[b,e][1,4]diazepin-11-yl)-N-hydroxybenzamide] yielded an IC50 of 0.1 to 1 µM. Work on `CCN1c2ccccc2N=C(c2ccc(C(=O)NO)cc2)c2ccccc21` [(Z)-4-(5-ethyl-5H-dibenzo[b,e][1,4]diazepin-11-yl)-N-hydroxybenzamide] yielded an IC50 of 0.05 to 0.1 µM. With `O=C(NO)c1ccc(C2=Nc3ccccc3Cn3cccc32)cc1` [(Z)-4-(5H-benzo[e]pyrrolo[1,2-a][1,4]diazepin-11-yl)-N-hydroxybenzamide] the IC50 was < 0.05 µM. Work on `O=C(NO)c1ccc(C2=Nc3ccccc3Nc3ccccc32)cc1` [(Z)-4-(5H-dibenzo[b,e][1,4]diazepin-11-yl)-N-hydroxybenzamide] yielded an IC50 of 0.1 to 1 µM. Work on `O=C(NO)c1ccc(C2=Nc3cccc(F)c3Oc3ccccc32)cc1` [(Z)-4-(6-fluorodibenzo[b,f][1,4]oxazepin-11-yl)-N-hydroxybenzamide] yielded an IC50 of 0.05 to 0.1 µM. `O=C(NO)c1ccc(C2=Nc3ccc(Cl)cc3Oc3ccccc32)cc1` [(Z)-4-(7-chlorodibenzo[b,f][1,4]oxazepin-11-yl)-N-hydroxybenzamide] gave an IC50 of 0.1 to 1 µM. For `N#Cc1ccc2c(c1)Oc1ccccc1C(c1ccc(C(=O)NO)cc1)=N2` [(Z)-4-(7-cyanodibenzo[b,f][1,4]oxazepin-11-yl)-N-hydroxybenzamide], the IC50 was < 0.05 µM. For `O=C(NO)c1ccc(C2=Nc3cc(Cl)ccc3Nc3ccccc32)cc1` [(Z)-4-(8-chloro-5H-dibenzo[b,e][1,4]diazepin-11-yl)-N-hydroxybenzamide], the IC50 was 0.05 to 0.1 µM. Work on `O=C(NO)c1ccc(C2=Nc3cc(Cl)ccc3Oc3ccccc32)cc1` [(Z)-4-(8-chlorodibenzo[b,f][1,4]oxazepin-11-yl)-N-hydroxybenzamide] yielded an IC50 of 0.1 to 1 µM. For `N#Cc1ccc2c(c1)N=C(c1ccc(C(=O)NO)cc1)c1ccccc1O2` [(Z)-4-(8-cyanodibenzo[b,f][1,4]oxazepin-11-yl)-N-hydroxybenzamide], the IC50 was 0.05 to 0.1 µM. `O=C(NO)c1ccc(C2=Nc3c(F)cccc3Oc3ccccc32)cc1` [(Z)-4-(9-fluorodibenzo[b,f][1,4]oxazepin-11-yl)-N-hydroxybenzamide] was tested, and the IC50 was 0.05 to 0.1 µM. In the case of `O=C(NO)c1ccc(C2=Nc3ccccc3N(CC3CC3)c3ncccc32)cc1` [(Z)-4-(11-(cyclopropylmethyl)-11H-benzo[b]pyrido[2,3-e][1,4]diazepin-5-yl)-N-hydroxybenzamide], the IC50 is reported as 1 to 10 µM. For `O=C(NO)c1ccc(C2=Nc3ccccc3N(C3CC3)c3ncccc32)cc1` [(Z)-4-(11-cyclopropyl-11H-benzo[b]pyrido[2,3-e][1,4]diazepin-5-yl)-N-hydroxybenzamide], the IC50 was < 0.05 µM. For `CCN1c2ccccc2N=C(c2ccc(C(=O)NO)cc2)c2cccnc21` [(Z)-4-(11-ethyl-11H-benzo[b]pyrido[2,3-e][1,4]diazepin-5-yl)-N-hydroxybenzamide], the IC50 was < 0.05 µM. In the case of `O=C(NO)c1ccc(C2=Nc3ccccc3Oc3ncccc32)cc1` [(Z)-4-(benzo[b]pyrido[3,2-f][1,4]oxazepin-5-yl)-N-hydroxybenzamide], the IC50 is reported as 0.05 to 0.1 µM. Work on `O=C(NO)c1ccc(C2=Nc3ccccc3Oc3cnccc32)cc1` [(Z)-4-(benzo[b]pyrido[4,3-f][1,4]oxazepin-5-yl)-N-hydroxybenzamide] yielded an IC50 of 0.1 to 1 µM. With `O=C(NO)c1ccc(C2=Nc3cccnc3Oc3ccccc32)cc1` [(Z)-4-(benzo[f]pyrido[2,3-b][1,4]oxazepin-6-yl)-N-hydroxybenzamide] the IC50 was < 0.05 µM. `O=C(NO)c1ccc(C2=Nc3ccsc3Oc3ccccc32)cc1` [(Z)-4-(benzo[f]thieno[2,3-b][1,4]oxazepin-5-yl)-N-hydroxybenzamide] gave an IC50 of 0.1 to 1 µM. For `O=C(NO)c1ccc(C2=Nc3ccccc3Oc3ccccc32)cc1F` [(Z)-4-(dibenzo[b,f][1,4]oxazepin-11-yl)-2-fluoro-N-hydroxybenzamide], the IC50 was 0.1 to 1 µM. For `O=C(NO)c1ccc(C2=Nc3ccccc3Oc3ccccc32)cc1` [(Z)-4-(dibenzo[b,f][1,4]oxazepin-11-yl)-N-hydroxybenzamide], the IC50 was < 0.05 µM. `O=C(NO)c1ccc(C2=Nc3ccccc3Sc3ccccc32)cc1` [(Z)-4-(dibenzo[b,f][1,4]thiazepin-11-yl)-N-hydroxybenzamide] was tested, and the IC50 was 0.1 to 1 µM. `O=C(NO)c1ccc(C2=Nc3ccccc3Oc3c[n+]([O-])ccc32)cc1` [(Z)-5-(4-(hydroxycarbamoyl)phenyl)benzo[b]pyrido[4,3-f][1,4]oxazepine 2-oxide] showed an IC50 of 0.1 to 1 µM. `COc1cccc2c1C(c1ccc(C(=O)NO)cc1)=Nc1ccccc1O2` [(Z)-N-hydroxy-4-(1-methoxydibenzo[b,f][1,4]oxazepin-11-yl)benzamide] was tested, and the IC50 was 0.1 to 1 µM. `O=C(NO)c1ccc(C2=Nc3ccc(C(F)(F)F)nc3Oc3ccccc32)cc1` [(Z)-N-hydroxy-4-(2-(trifluoromethyl)benzo[f]pyrido[2,3-b][1,4]oxazepin-6-yl)benzamide] showed an IC50 of 0.05 to 0.1 µM. For `COc1ccc2c(c1)C(c1ccc(C(=O)NO)cc1)=Nc1ccccc1O2` [(Z)-N-hydroxy-4-(2-methoxydibenzo[b,f][1,4]oxazepin-11-yl)benzamide], the IC50 was 0.1 to 1 µM. In the case of `O=C(NO)c1ccc(C2=Nc3ccccc3Oc3cc(C(F)(F)F)ccc32)cc1` [(Z)-N-hydroxy-4-(3-(trifluoromethyl)dibenzo[b,f][1,4]oxazepin-11-yl)benzamide], the IC50 is reported as 0.05 to 0.1 µM. In the case of `COc1ccc2c(c1)Oc1ccccc1N=C2c1ccc(C(=O)NO)cc1` [(Z)-N-hydroxy-4-(3-methoxydibenzo[b,f][1,4]oxazepin-11-yl)benzamide], the IC50 is reported as 0.1 to 1 µM.
